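Tested at 5 concentrations; 48 h exposure; 96-well plates; endpoints linearly interpolated, else capped at highest concentration. GI50 marks 50% less growth. TGI denotes the concentration required for complete inhibition of growth.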
Columns and labels:
Assay in all cases: growth of human tumour cells (NCI), 48 h
OVCAR-4 ovarian = tested on: OVCAR-4 ovarian
RXF 393 renal = tested on: RXF 393 renal
SW-620 colon = tested on: SW-620 colon
HCT-116 colon = tested on: HCT-116 colon
MALME-3M melanoma = tested on: MALME-3M melanoma
MOLT-4 leukemia = tested on: MOLT-4 leukemia
SNB-75 CNS = tested on: SNB-75 CNS
NCI-H460 lung = tested on: NCI-H460 lung
UACC-257 melanoma = tested on: UACC-257 melanoma
OVCAR-3 ovarian = tested on: OVCAR-3 ovarian

SMILES | TGI (OVCAR-4 ovarian) | TGI (RXF 393 renal) | TGI (SW-620 colon) | TGI (HCT-116 colon) | TGI (MALME-3M melanoma) | TGI (MOLT-4 leukemia) | TGI (SNB-75 CNS) | TGI (NCI-H460 lung) | TGI (UACC-257 melanoma) | TGI (OVCAR-3 ovarian) | GI50 (OVCAR-4 ovarian) | GI50 (RXF 393 renal) | GI50 (SW-620 colon) | GI50 (HCT-116 colon) | GI50 (MALME-3M melanoma) | GI50 (MOLT-4 leukemia) | GI50 (SNB-75 CNS) | GI50 (NCI-H460 lung) | GI50 (UACC-257 melanoma) | GI50 (OVCAR-3 ovarian)
N#Cc1c(CC(=O)O)cc(=O)n2c1[nH]c1ccccc12 | > 100 µM | > 100 µM | > 100 µM | > 100 µM | > 100 µM | > 100 µM | > 100 µM | > 100 µM | > 100 µM | > 100 µM | – | – | – | – | – | – | – | – | – | –
O=C(/C=C(\[O-])c1ccccc1)CCCCCCC(=O)/C=C(\[O-])c1ccccc1.O=C(/C=C(\[O-])c1ccccc1)CCCCCCC(=O)/C=C(\[O-])c1ccccc1.O=C(/C=C(\[O-])c1ccccc1)CCCCCCC(=O)/C=C(\[O-])c1ccccc1.[Y+3].[Y+3] | > 50 µM | 37.4 µM | > 50 µM | > 50 µM | > 50 µM | > 50 µM | 22.2 µM | > 50 µM | > 50 µM | > 50 µM | 14.2 µM | 11 µM | > 50 µM | 14.9 µM | > 50 µM | 26.9 µM | 8.98 µM | > 50 µM | 17.6 µM | > 50 µM
O=[N+]([O-])c1ccc(/C=C(/c2ccc([N+](=O)[O-])o2)S(=O)(=O)c2ccccc2)cc1 | > 100 µM | > 100 µM | > 100 µM | > 100 µM | 87.5 µM | 37.5 µM | > 100 µM | > 100 µM | > 100 µM | > 100 µM | – | – | – | – | – | – | – | – | – | –
CCCCCNC(=O)CCCCCCCCCCCNC(=O)CCCCCCCCCCN1C=CC(=CC=C2C=CC(=O)C=C2)C=C1 | > 100 µM | > 100 µM | > 100 µM | > 100 µM | > 100 µM | > 100 µM | 68.3 µM | > 100 µM | 88.7 µM | > 100 µM | – | – | – | – | – | – | – | – | – | –
CNCc1cccc2c1OCCOCCOCCNS(=O)(=O)c1ccc(cc1)-c1cnc(N)c(n1)C(=O)N2 | 6.42 µM | 1.72 µM | 3.13 µM | 2.67 µM | 3.08 µM | 7.68 µM | 5.26 µM | 3.25 µM | 4.68 µM | 2.61 µM | 1.5 µM | 0.353 µM | 0.875 µM | 0.67 µM | 1.55 µM | 0.557 µM | 0.353 µM | 1 µM | 1.93 µM | 1.12 µM
COC(=O)C1CC(=O)O[C@H]1c1ccc(OC)c(OC)c1 (stereo not given in full) | > 100 µM | > 100 µM | > 100 µM | > 100 µM | > 100 µM | > 100 µM | > 100 µM | > 100 µM | > 100 µM | > 100 µM | – | – | – | – | – | – | – | – | – | –
O=C1c2ccccc2C2(O)N(c3ccccc3)C(=S)N(c3ccccc3)C12O (stereo not given) | > 100 µM | > 100 µM | > 100 µM | > 100 µM | > 100 µM | > 100 µM | > 100 µM | > 100 µM | > 100 µM | > 100 µM | – | – | – | – | – | – | – | – | – | –
O=C1C[C@@H]2OCC=C3C[N+]4([O-])CC[C@]56c7ccccc7N1[C@H]5[C@H]2[C@H]3C[C@@H]64 (stereo not given in full) | > 100 µM | > 100 µM | > 100 µM | > 100 µM | > 100 µM | > 100 µM | > 100 µM | > 100 µM | > 100 µM | > 100 µM | > 100 µM | > 100 µM | > 100 µM | > 100 µM | > 100 µM | > 100 µM | > 100 µM | > 100 µM | > 100 µM | > 100 µM
O=C1NC(c2ccccc2Cl)Nc2ccccc21 (stereo not given) | > 100 µM | 63.1 µM | > 30.1 µM | > 100 µM | > 100 µM | > 94.4 µM | 49.1 µM | > 100 µM | > 100 µM | 31.3 µM | – | – | – | – | – | – | – | – | – | –
Oc1c(Br)cc(Cl)cc1C(c1cc(Cl)cc(Br)c1O)C(Cl)(Cl)Cl | 13.1 µM | 8.77 µM | 13 µM | 7.91 µM | 7.78 µM | 9.95 µM | 12.3 µM | 8.53 µM | 6.57 µM | 10.1 µM | 2.86 µM | 2.73 µM | 3.28 µM | 2.12 µM | 2.73 µM | 3.32 µM | 2.64 µM | 2.4 µM | 2.33 µM | 3.14 µM
COc1ccc(C(C)Nc2cc(OC)c(OC)c(OC)c2)cc1 (stereo not given) | 63.8 µM | 20.9 µM | > 100 µM | > 46.2 µM | > 29.7 µM | > 100 µM | > 100 µM | > 25.5 µM | > 100 µM | 6.99 µM | – | – | – | – | – | – | – | – | – | –
CN(C)c1ccc(/C=C2\CCc3ccccc3C2=O)cc1Br | > 100 µM | > 100 µM | > 100 µM | > 100 µM | > 100 µM | > 100 µM | > 100 µM | > 100 µM | > 100 µM | > 100 µM | – | – | – | – | – | – | – | – | – | –
CC(=O)NC(CCCNC(=O)OCc1ccccc1)C(=O)NCc1ccccc1 (stereo not given) | > 100 µM | > 100 µM | > 100 µM | > 100 µM | > 100 µM | > 100 µM | > 100 µM | > 100 µM | > 100 µM | > 100 µM | – | – | – | – | – | – | – | – | – | –
CC(=O)O[C@H]1C[C@@H]2[C@@]3(C)CC[C@H]4C[C@@]4(C)[C@@H]3CC[C@@]2(C)C2=CCC3=C(COC3=O)[C@]21C | 60.2 µM | 52.6 µM | 43.6 µM | 43.7 µM | 26.4 µM | > 100 µM | 51.2 µM | > 100 µM | > 100 µM | 25.7 µM | 25 µM | 21.2 µM | 19.4 µM | 19.5 µM | 11 µM | 33.5 µM | 23.1 µM | 29.9 µM | 34.2 µM | 10.1 µM
COc1cc(NC(=O)COc2ccccc2)c(C(N)=O)cc1OC | > 100 µM | 9.52 µM | > 100 µM | > 100 µM | > 100 µM | > 100 µM | 11.9 µM | > 100 µM | > 100 µM | 10.5 µM | > 100 µM | 1.69 µM | 0.646 µM | 0.62 µM | 4 µM | 2.91 µM | 0.547 µM | 0.529 µM | > 100 µM | 0.472 µM

Reference: PubChem BioAssay (NCI)
